According to US6737383B1, “Herbicidal oxadiazolidines” (priority 1999, dated 2004):

Legend:
bedstraw = assay: Test B pre/postemergence bedstraw; assay type: in vivo, Galium aparine
Outline: (§1)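 Response is a visual 0-to-10 score relative to untreated plants, where 0 means no effect and 10 means complete control, taken twelve to sixteen days after application. Treatments went onto soil at planting and onto foliage of 1- to 4-leaf plants, using a surfactant-containing non-phytotoxic solvent.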

blackgrass = assay: Test B pre/postemergence blackgrass; assay type: in vivo, Alopecurus myosuroides
Outline: as §1

surinam grass = assay: Test B pre/postemergence surinam grass; assay type: in vivo, Brachiaria decumbens; settings: for Plant response rating, B. signalgrass: Postemergence
Outline: as §1

cocklebur = assay: Test B pre/postemergence cocklebur; assay type: in vivo, Xanthium strumarium
Outline: as §1

corn = assay: Test B pre/postemergence corn; assay type: in vivo, Zea mays
Outline: as §1

crabgrass = assay: Test B pre/postemergence crabgrass; assay type: in vivo, Digitaria sanguinalis
Outline: as §1

giant foxtail = assay: Test B pre/postemergence giant foxtail; assay type: in vivo, Setaria faberii
Outline: as §1

morningglory = assay: Test B pre/postemergence morningglory; assay type: in vivo, Ipomoea hederacea
Outline: as §1

pigweed = assay: Test B pre/postemergence pigweed; assay type: in vivo, Amaranthus retroflexus
Outline: as §1

rape = assay: Test B pre/postemergence rape; assay type: in vivo, Brassica napus
Outline: as §1

soybean = assay: Test B pre/postemergence soybean; assay type: in vivo, Glycine max
Outline: as §1

sugar beet = assay: Test B pre/postemergence sugar beet; assay type: in vivo, Beta vulgaris
Outline: as §1

velvetleaf = assay: Test B pre/postemergence velvetleaf; assay type: in vivo, Abutilon theophrasti
Outline: as §1

wheat = assay: Test B pre/postemergence wheat; assay type: in vivo, Triticum aestivum
Outline: as §1

wild oat = assay: Test B pre/postemergence wild oat; assay type: in vivo, Avena fatua
Outline: as §1

purple nutsedge = assay: Test B pre/postemergence purple nutsedge; assay type: in vivo, Cyperus rotundus; settings: for Plant response rating, Nutsedge: Postemergence, scale of 0 to 10 where 0 is no effect and 10 is complete control
Outline: as §1

[1] = Preemergence, Rate 62 g/ha, scale 0 to 10 (0 no effect, 10 complete control)
[2] = Preemergence, Rate 125 g/ha, scale 0 to 10, 0 is no effect, 10 is complete control
[3] = Preemergence, Rate 500 g/ha, scale of 0 to 10 where 0 is no effect and 10 is complete control
[4] = Rate 250 g/ha, Postemergence, scale of 0 to 10 where 0 is no effect and 10 is complete control
[5] = Postemergence, Rate 62 g/ha, scale of 0 to 10, 0 is no effect, 10 is complete control
[6] = Postemergence, Rate 125 g/ha, scale 0 to 10, 0 is no effect, 10 is complete control
[7] = Postemergence, Rate 500 g/ha, scale of 0 to 10 where 0 is no effect and 10 is complete control

COCn1c(=O)on(C(=O)N(c2ccccc2)C(C)C)c1=O [Compound 562]
Bedstraw plant response rating (bedstraw; [1]): 0 | Bedstraw plant response rating (bedstraw; [2]): 0 | Bedstraw plant response rating (0 to 10 scale) (bedstraw; Preemergence, Rate 250 g/ha): 0 | Bedstraw plant response rating (bedstraw; [3]): 0 | Plant response rating, Bedstraw (bedstraw; [4]): 4 | Blackgrass plant response rating (blackgrass; [5]): 3 | Blackgrass plant response rating (blackgrass; [6]): 3 | Plant response rating, Blackgrass (blackgrass; [7]): 3 | Blackgrass plant response rating (blackgrass; [1]): 4 | Blackgrass plant response rating (blackgrass; [2]): 10 | Blackgrass plant response rating (0 to 10 scale) (blackgrass; Preemergence, Rate 250 g/ha): 10 | Blackgrass plant response rating (blackgrass; [3]): 10 | Plant response rating, Blackgrass (blackgrass; [4]): 3 | Plant response rating, B. signalgrass (surinam grass; Rate 500 g/ha, scale of 0 to 10 where 0 is no effect and 10 is complete control): 7 | B. signalgrass plant response rating (surinam grass; [1]): 5 | B. signalgrass plant response rating (surinam grass; [2]): 8 | B. signalgrass plant response rating (0 to 10 scale, 0 is no effect, 10 is complete control) (surinam grass; Preemergence, Rate 250 g/ha): 10 | B. signalgrass plant response rating (surinam grass; [3]): 10 | Plant response rating, B. signalgrass (surinam grass; Rate 250 g/ha, scale of 0 to 10 where 0 is no effect and 10 is complete control): 5 | Cocklebur plant response rating (cocklebur; [5]): 2 | Cocklebur plant response rating (cocklebur; [6]): 2 | Plant response rating, Cocklebur (cocklebur; [7]): 2 | Cocklebur plant response rating (cocklebur; [1]): 0 | Cocklebur plant response rating (cocklebur; [2]): 0 | Cocklebur plant response rating (0 to 10 scale) (cocklebur; Preemergence, Rate 250 g/ha): 0 | Cocklebur plant response rating (cocklebur; [3]): 2 | Plant response rating, Cocklebur (cocklebur; [4]): 2 | Corn plant response rating (corn; [5]): 0 | Corn plant response rating (corn; [6]): 3 | Plant response rating, Corn (corn; [7]): 7 | Corn plant response rating (corn; [1]): 0 | Corn plant response rating (corn; [2]): 3 | Corn plant response rating (0 to 10 scale) (corn; Preemergence, Rate 250 g/ha): 9 | Corn plant response rating (corn; [3]): 9 | Plant response rating, Corn (corn; [4]): 7 | Crabgrass plant response rating (crabgrass; [5]): 7 | Crabgrass plant response rating (crabgrass; [6]): 5 | Plant response rating, Crabgrass (crabgrass; [7]): 10 | Crabgrass plant response rating (crabgrass; [1]): 8 | Crabgrass plant response rating (crabgrass; [2]): 8 | Crabgrass plant response rating (0 to 10 scale) (crabgrass; Preemergence, Rate 250 g/ha): 10 | Crabgrass plant response rating (crabgrass; [3]): 10 | Plant response rating, Crabgrass (crabgrass; [4]): 7 | Giant foxtail plant response rating (giant foxtail; [5]): 7 | Giant foxtail plant response rating (giant foxtail; [6]): 7 | Plant response rating, Giant foxtail (giant foxtail; [7]): 8 | Giant foxtail plant response rating (giant foxtail; [1]): 4 | Giant foxtail plant response rating (giant foxtail; [2]): 9 | Giant foxtail plant response rating (0 to 10 scale) (giant foxtail; Preemergence, Rate 250 g/ha): 8 | Giant foxtail plant response rating (giant foxtail; [3]): 8 | Plant response rating, Giant foxtail (giant foxtail; [4]): 8 | Morningglory plant response rating (morningglory; [5]): 4 | Morningglory plant response rating (morningglory; [6]): 4 | Plant response rating, Morningglory (morningglory; [7]): 10 | Morningglory plant response rating (morningglory; [1]): 0 | Morningglory plant response rating (morningglory; [2]): 0 | Morningglory plant response rating (0 to 10 scale) (morningglory; Preemergence, Rate 250 g/ha): 0 | Morningglory plant response rating (morningglory; [3]): 8 | Plant response rating, Morningglory (morningglory; [4]): 10 | Redroot pigweed plant response rating (pigweed; [5]): 9 | Plant response rating, Redroot pigweed (pigweed; [7]): 9 | Redroot pigweed plant response rating (pigweed; [1]): 10 | Redroot pigweed plant response rating (pigweed; [2]): 10 | Redroot pigweed plant response rating (0 to 10 scale) (pigweed; Preemergence, Rate 250 g/ha): 10 | Redroot pigweed plant response rating (pigweed; [3]): 10 | Plant response rating, Redroot pigweed (pigweed; [4]): 9 | Rape plant response rating (rape; [5]): 0 | Rape plant response rating (rape; [6]): 0 | Plant response rating, Rape (rape; [7]): 7 | Rape plant response rating (rape; [1]): 0 | Rape plant response rating (rape; [2]): 6 | Rape plant response rating (0 to 10 scale) (rape; Preemergence, Rate 250 g/ha): 10 | Rape plant response rating (rape; [3]): 10 | Plant response rating, Rape (rape; [4]): 0 | Soybean plant response rating (soybean; [5]): 3 | Plant response rating, Soybean (soybean; [7]): 5 | Soybean plant response rating (soybean; [1]): 0 | Soybean plant response rating (soybean; [2]): 0 | Soybean plant response rating (0 to 10 scale) (soybean; Preemergence, Rate 250 g/ha): 9 | Soybean plant response rating (soybean; [3]): 9 | Plant response rating, Soybean (soybean; [4]): 4 | Sugarbeets plant response rating (sugar beet; [5]): 3 | Plant response rating, Sugarbeets (sugar beet; [7]): 5 | Sugarbeets plant response rating (sugar beet; [1]): 6 | Sugarbeets plant response rating (sugar beet; [2]): 8 | Sugarbeets plant response rating (0 to 10 scale) (sugar beet; Preemergence, Rate 250 g/ha): 9 | Sugarbeets plant response rating (sugar beet; [3]): 9 | Plant response rating, Sugarbeets (sugar beet; [4]): 3 | Velvetleaf plant response rating (velvetleaf; [5]): 3 | Plant response rating, Velvetleaf (velvetleaf; [7]): 6 | Velvetleaf plant response rating (velvetleaf; [1]): 0 | Velvetleaf plant response rating (velvetleaf; [2]): 0 | Velvetleaf plant response rating (0 to 10 scale) (velvetleaf; Preemergence, Rate 250 g/ha): 0 | Velvetleaf plant response rating (velvetleaf; [3]): 7 | Plant response rating, Velvetleaf (velvetleaf; [4]): 6 | Wheat plant response rating (wheat; [5]): 0 | Plant response rating, Wheat (wheat; [7]): 5 | Wheat plant response rating (wheat; [1]): 3 | Wheat plant response rating (wheat; [2]): 9 | Wheat plant response rating (0 to 10 scale) (wheat; Preemergence, Rate 250 g/ha): 9 | Wheat plant response rating (wheat; [3]): 9 | Plant response rating, Wheat (wheat; [4]): 7 | Wild oats plant response rating (wild oat; [5]): 0 | Plant response rating, Wild oats (wild oat; [7]): 4 | Wild oats plant response rating (wild oat; [1]): 4 | Wild oats plant response rating (wild oat; [2]): 9 | Wild oats plant response rating (0 to 10 scale) (wild oat; Preemergence, Rate 250 g/ha): 10 | Wild oats plant response rating (wild oat; [3]): 10 | Plant response rating, Wild oats (wild oat; [4]): 0 | Plant response rating, Nutsedge (purple nutsedge; Rate 500 g/ha): 5 | Nutsedge plant response rating (purple nutsedge; [1]): 0 | Nutsedge plant response rating (purple nutsedge; [2]): 0 | Nutsedge plant response rating (0 to 10 scale) (purple nutsedge; Preemergence, Rate 250 g/ha): 0 | Plant response rating, Nutsedge (purple nutsedge; Rate 250 g/ha): 5
